In patent US20150057465A1, “CONTROL OF GROWTH-INDUCTION-PRODUCTION PHASES” (OPX BIOTECHNOLOGIES, INC., priority 2013, published 2015):
“Also recorded” adds a separate entry of the source. Like-named read-outs stand apart in the source and are kept apart here.

Key:
E. coli strains = test: Growth inhibition of E. coli strains grown in the presence of 3-HP; assay type: cell-based
H. elongata ACCase = test: Salt inhibition of H. elongata ACCase activity; assay type: biochemical, Halomonas elongata; details: ACCase from the halophile H. elongata, compared to E. coli ACCase, FIG. 4
Protocol: Accordingly, the genes encoding the accA, accB, accC, accD of H. elongata described in Table 1 were synthesized for expression in E. coli using codons optimized for this organism and supplied individually on pUC57 plasmids without promoters. Synthetic operons comprising the subunits were assembled using the Gibson assembly method.
Concentrations of products were measured using the Nanodrop spectophotometer.

E. coli ACCase = E. coli ACCase (Escherichia coli, UniProt P0A9Q5+P0ABD5+P0ABD8+P24182); details: for effect of salt on ACCase activity: E. coli ACCase, dose-dependent studies, FIG. 4; for decrease of the activity of the ACCase enzyme: relative to control (FIG. 4)
Protocol: Levels of greater than 0.66M (60 g/L) are expected to be present for commercially viable commercial production of 3-HP.
Each gene was amplified by PCRs with Pfu Ultra II HS using the manufacturer's instructions, and the PCR products were purified using the Zymo PCR Cleanup kit. Concentrations of products were measured using the Nanodrop spectophotometer. The Gibson Assembly kit (NEB) was used to construct plasmids expressing the ACCase subunit genes as directed by the manufacturer. The effect of NH4-3-HP and NH4Cl on H. elongata ACCase was tested and compared to the E. coli ACCase.

3HP titer = test: 1 L fermentation with overexpression of rhtA exporter, 3HP titer; assay type: cell-based, E. coli; details: compared to control plasmid without rhtA, FIG. 7
Protocol: A known chemical exporter from E. coli that has been previously characterized for homoserine transport, rhtA, was evaluated for increased production of 3-HP. A mutant version of the exporter, rhtA(P2S) (SEQ ID NO. 30 nucleic acid, SEQ ID NO. 31 protein) was synthesized behind the PtpiA promoter and inserted into the pTRC-PyibD-MCR plasmid behind a terminator using the Gibson Assemply kit (NEB) according to manufacturer's instructions. The effects of overexpression of rhtA were evaluated in 1 L fermentation compared to the control plasmid without rhtA. […] Construction of plasmids expressing another putative transporter, ydcO (SEQ ID NO. 32 nucleic acid, SEQ ID NO. 33 protein) is carried out in the same manner.

[1] = salts of 3-HP levels near 0.66M

Chain of E. coli ACCase (P0A9Q5 whole entry): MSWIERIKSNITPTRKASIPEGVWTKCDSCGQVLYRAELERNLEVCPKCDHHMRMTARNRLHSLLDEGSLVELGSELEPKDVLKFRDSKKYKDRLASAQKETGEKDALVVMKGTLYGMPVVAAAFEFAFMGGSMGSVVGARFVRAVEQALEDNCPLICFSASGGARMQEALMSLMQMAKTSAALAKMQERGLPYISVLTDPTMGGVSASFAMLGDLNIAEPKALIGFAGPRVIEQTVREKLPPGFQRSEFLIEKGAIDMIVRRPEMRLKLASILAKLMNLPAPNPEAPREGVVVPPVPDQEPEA
Chain of E. coli ACCase (P0ABD5 whole entry): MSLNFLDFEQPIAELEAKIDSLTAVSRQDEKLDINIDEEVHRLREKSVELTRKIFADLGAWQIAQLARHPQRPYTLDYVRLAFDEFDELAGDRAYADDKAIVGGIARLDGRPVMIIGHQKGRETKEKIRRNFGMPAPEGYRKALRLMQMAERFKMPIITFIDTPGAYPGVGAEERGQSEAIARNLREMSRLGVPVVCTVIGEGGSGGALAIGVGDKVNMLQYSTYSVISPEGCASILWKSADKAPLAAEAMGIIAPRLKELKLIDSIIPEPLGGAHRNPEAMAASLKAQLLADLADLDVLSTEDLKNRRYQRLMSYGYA

| Molecule | effect of salt on ACCase activity (H. elongata ACCase) | effect of salt on ACCase activity (E. coli ACCase) | decrease of the activity of the ACCase enzyme (E. coli ACCase; [1]) | decrease of the activity of the ACCase enzyme (E. coli ACCase; salt levels near 0.44M) | also measured |
| --- | --- | --- | --- | --- | --- |
| O=C(O)CCO [3-HP, 3-hydroxypropionic acid] | – | – | – | – | 3-HP level at which growth inhibition was demonstrated (E. coli strains): ≥ 20 g/L |
| N.O=C(O)CCO [NH4-3-HP] | less affected | significantly inhibited | approximately 80% | – | – |
| Cl.N [NH4Cl] | less affected | significantly inhibited | – | approximately 80% | – |
| O=C([O-])CCO.[Na+] [Na-3-HP] | – | inhibitory effects | approximately 80% | – | – |
| [Cl-].[Na+] [NaCl] | – | inhibitory effects | – | approximately 80% | – |
| rhtA: chemical exporter from E. coli characterized for homoserine transport; mutant rhtA(P2S), SEQ ID NO. 30, 31, overexpressed (protein, chemical exporter from E. coli characterized for homoserine transport; 30, 31, overexpressed) MSGSLRKMPVWLPIVILLVAMASIQGGASLAKSLFPLVGAPGVTALRLALGTLILIAFFKPWRLRFAKEQRLPLLFYGVSLGGMNYLFYLSIQTVPLGIAVALEFTGPLAVALFSSRRPVDFVWVVLAVLGLWFLLPLGQDVSHVDLTGCALALGAGACWAIYILSGQRAGAEHGPATVAIGSLIAALIFVPIGALQAGEALWHWSVIPLGLAVAILSTALPYSLEMIALTRLPTRTFGTLMSMEPALAAVSGMIFLGETLTPIQLLALGAIIAASMGSTLTVRKESKIKELDIN | – | – | – | – | 3HP titer (3HP titer): improved production of 3-HP; also recorded: significant improvement in 3HP titer |
